Assay results reported in patent US20260365670A1, “EGFR INHIBITORS AND USES THEREOF” (DIZAL (JIANGSU) PHARMACEUTICAL CO., LTD., priority 2022, published 2026).
Read-outs that look alike come from different tables or passages of the source.

Experiments:
[1] = tested on: Ba/F3 cells expressing EGFR mutations; assay: Cell proliferation assay, Ba/F3 cells expressing EGFR mutations (CellTiter-Glo, 72 hours); type: cell-based; settings: CellTiter-Glo
Summary of the method: (§1)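 GI50 is the concentration giving 50% proliferation inhibition. Growth for this was normalised to a baseline viability reading taken when compound was added, and to DMSO wells. PC-9 (500 cells/well) and mutant-EGFR Ba/F3 (5000 cells/well) are treated after overnight seeding in RPMI1640-based medium.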

EGFR Exon19Del/T790M = target: T1, EGFR Exon19Del/T790M (Homo sapiens, UniProt P00533, DEL746-750/T790M); assay: Inhibition of EGFR Exon19Del/T790M biochemical enzymatic activity (HTRF); settings: EGFR Del19-T790M, 1 mM ATP, 1 h, room temperature, read-out: IC50 (nM) @Del19-T790M
T1 construct: purchased Carna Bio
Summary of the method: (§2)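 In a buffer with 5 mM MgCl2, 1 mM MnCl2, 1 mM DTT and 0.01% CHAPS, enzyme turnover of 1 μM biotinylated TK substrate at 1 mM ATP is followed by HTRF after 1 h at room temperature. IC50 is obtained by a four-parameter fit.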

EGFR Exon19Del = target: T2, EGFR Exon19Del (Homo sapiens, UniProt P00533, DEL746-750); assay: Inhibition of EGFR Exon19Del biochemical enzymatic activity (HTRF); settings: EGFR Del19, 1 mM ATP, 1 h, room temperature, read-out: IC50 @Del19
T2 construct: purchased Carna Bio
Summary of the method: as §2

PC-9 = assay: Cell proliferation assay, PC-9 cells (CellTiter-Glo, 72 hours); type: cell-based; settings: PC9 cells, CellTiter-Glo, read-out: PC9 GI50
Summary of the method: as §1

EGFR[T790M/C797S/L858R] = target: T3, EGFR[T790M/C797S/L858R] (Homo sapiens, UniProt P00533, C797S/L858R/T790M); assay: Inhibition of EGFR[T790M/C797S/L858R] biochemical enzymatic activity (HTRF); settings: EGFR T790M-C797S-L858R, 1 mM ATP, 1 h, room temperature, read-out: IC50 (nM) @T790M- C797S - L858R
T3 construct: purchased Carna Bio
Summary of the method: as §2

EGFR (C797S L858R) = target: T4, EGFR (C797S L858R) (Homo sapiens, UniProt P00533, C797S/L858R); assay: Inhibition of EGFR (C797S L858R) biochemical enzymatic activity (HTRF); settings: EGFR L858-C797S, 1 mM ATP, 1 h, room temperature, read-out: IC50 (nM) @L858-C797S
T4 construct: purchased signalchem
Summary of the method: as §2

[2] = target: T5, EGFR[T790M/C797S/d746-750] (Homo sapiens, UniProt P00533, C797S/DEL746-750/T790M); assay: Inhibition of EGFR[T790M/C797S/d746-750] biochemical enzymatic activity (HTRF); settings: EGFR T790M-C797S-Del19, 1 mM ATP, 1 h, room temperature, read-out: IC50 (nM) @T790M - C797S - Del19
T5 construct: purchased Carna Bio
Summary of the method: as §2

EGFR L858R/T790M = target: T6, EGFR L858R/T790M (Homo sapiens, UniProt P00533, L858R/T790M); assay: Inhibition of EGFR L858R/T790M biochemical enzymatic activity (HTRF); settings: EGFR L858R-T790M, 1 mM ATP, 1 h, room temperature, read-out: IC50 (nM) @L858R-T790M
T6 construct: purchased Carna Bio
Summary of the method: as §2

EGFR L858R = target: T7, EGFR L858R (Homo sapiens, UniProt P00533, L858R); assay: Inhibition of EGFR L858R biochemical enzymatic activity (HTRF); settings: 1 mM ATP, 1 h, room temperature, read-out: IC50 (nM) @L858R
T7 construct: purchased Carna Bio
Summary of the method: as §2

EGFR wild type = target: T8, EGFR wild type (Homo sapiens, UniProt P00533); assay: Inhibition of EGFR wild type biochemical enzymatic activity (HTRF); settings: EGFR WT, 1 mM ATP, 1 h, room temperature, read-out: IC50 (nM) @WT
T8 construct: purchased Carna Bio
Summary of the method: as §2

EGFR (d746-750 C797S) = target: T9, EGFR (d746-750 C797S) (Homo sapiens, UniProt P00533, C797S/DEL746-750); assay: Inhibition of EGFR (d746-750 C797S) biochemical enzymatic activity (HTRF); settings: EGFR Del19-C797S, 1 mM ATP, 1 h, room temperature, read-out: IC50 (nM) @Del19-C797S
T9 construct: purchased signalchem
Summary of the method: as §2

A-431 = assay: Cell proliferation GI50, A-431 cells (Table 6); type: cell-based
[3] = Mus musculus, BaF3, 72 h, BaF3 cells, EGFR DEL19-C797S, read-out: DEL19-C797S/BaF3 GI50
[4] = Mus musculus, BaF3, 72 h, BaF3 cells, EGFR DEL19-T790-C797S, read-out: DEL19-T790-C797S/BaF3 GI50
[5] = Mus musculus, BaF3, 72 h, BaF3 cells, EGFR L858R, read-out: L858R/BaF3 GI50
[6] = Mus musculus, BaF3, 72 h, BaF3 cells, EGFR L858R-C797S, read-out: L858R-C797S/BaF3 GI50
[7] = Mus musculus, BaF3, 72 h, BaF3 cells, EGFR L858R-T790-C797S, read-out: L858R-T790-C797S/BaF3 GI50
[8] = Mus musculus, BaF3, 72 h, BaF3 cells, EGFR L858R-T790M, read-out: L858R-T790M/BaF3 GI50
[9] = Mus musculus, BaF3, 72 h, EGFR DEL19-T790M, read-out: DEL19-T790M GI50
[10] = Homo sapiens, A-431, A-431 cells
[11] = BaF3 cells, EGFR DEL19-C797S, read-out: DEL19-C797S/BaF3 GI50
[12] = BaF3 cells, EGFR DEL19-T790-C797S, read-out: DEL19-T790-C797S/BaF3 GI50
[13] = BaF3 cells, EGFR L858R, read-out: L858R/BaF3 GI50
[14] = BaF3 cells, EGFR L858R-C797S, read-out: L858R-C797S/BaF3 GI50
[15] = BaF3 cells, EGFR L858R-T790-C797S, read-out: L858R-T790-C797S/BaF3 GI50
[16] = BaF3 cells, EGFR L858R-T790M, read-out: L858R-T790M/BaF3 GI50
[17] = EGFR DEL19-T790M, read-out: DEL19-T790M GI50

T4 sequence (P00533 25-1210 C797S/L858R): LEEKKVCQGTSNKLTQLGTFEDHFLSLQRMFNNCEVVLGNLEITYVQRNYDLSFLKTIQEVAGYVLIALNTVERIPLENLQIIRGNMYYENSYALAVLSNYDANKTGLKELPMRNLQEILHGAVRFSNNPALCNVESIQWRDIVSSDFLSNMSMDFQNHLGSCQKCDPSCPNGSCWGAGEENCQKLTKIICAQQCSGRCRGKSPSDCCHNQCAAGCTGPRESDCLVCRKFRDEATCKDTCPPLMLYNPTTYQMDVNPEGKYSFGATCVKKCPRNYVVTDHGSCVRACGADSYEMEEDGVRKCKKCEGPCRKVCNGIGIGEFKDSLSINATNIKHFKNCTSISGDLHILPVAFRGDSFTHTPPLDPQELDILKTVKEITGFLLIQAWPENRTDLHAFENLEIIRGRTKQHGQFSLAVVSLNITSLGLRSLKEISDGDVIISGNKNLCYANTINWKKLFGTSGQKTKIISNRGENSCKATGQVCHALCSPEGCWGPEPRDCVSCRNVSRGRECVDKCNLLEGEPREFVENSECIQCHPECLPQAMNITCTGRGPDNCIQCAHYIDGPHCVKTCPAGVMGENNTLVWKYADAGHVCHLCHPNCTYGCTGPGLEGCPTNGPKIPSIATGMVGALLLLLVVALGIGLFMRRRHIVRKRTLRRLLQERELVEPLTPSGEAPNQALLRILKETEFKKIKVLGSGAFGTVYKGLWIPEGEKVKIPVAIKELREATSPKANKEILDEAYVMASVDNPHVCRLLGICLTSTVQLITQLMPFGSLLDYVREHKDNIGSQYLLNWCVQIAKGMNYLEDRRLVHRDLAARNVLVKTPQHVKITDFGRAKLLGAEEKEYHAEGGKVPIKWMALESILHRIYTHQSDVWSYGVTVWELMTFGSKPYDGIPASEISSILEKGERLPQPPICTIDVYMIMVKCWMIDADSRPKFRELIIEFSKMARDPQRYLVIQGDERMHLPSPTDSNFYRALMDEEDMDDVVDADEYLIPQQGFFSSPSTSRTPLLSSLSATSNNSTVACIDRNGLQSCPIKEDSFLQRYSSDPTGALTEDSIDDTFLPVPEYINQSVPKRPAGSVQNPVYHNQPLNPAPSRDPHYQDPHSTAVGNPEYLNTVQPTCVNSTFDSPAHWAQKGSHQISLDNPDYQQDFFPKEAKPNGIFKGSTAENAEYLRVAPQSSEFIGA
T8 sequence (P00533 25-1210): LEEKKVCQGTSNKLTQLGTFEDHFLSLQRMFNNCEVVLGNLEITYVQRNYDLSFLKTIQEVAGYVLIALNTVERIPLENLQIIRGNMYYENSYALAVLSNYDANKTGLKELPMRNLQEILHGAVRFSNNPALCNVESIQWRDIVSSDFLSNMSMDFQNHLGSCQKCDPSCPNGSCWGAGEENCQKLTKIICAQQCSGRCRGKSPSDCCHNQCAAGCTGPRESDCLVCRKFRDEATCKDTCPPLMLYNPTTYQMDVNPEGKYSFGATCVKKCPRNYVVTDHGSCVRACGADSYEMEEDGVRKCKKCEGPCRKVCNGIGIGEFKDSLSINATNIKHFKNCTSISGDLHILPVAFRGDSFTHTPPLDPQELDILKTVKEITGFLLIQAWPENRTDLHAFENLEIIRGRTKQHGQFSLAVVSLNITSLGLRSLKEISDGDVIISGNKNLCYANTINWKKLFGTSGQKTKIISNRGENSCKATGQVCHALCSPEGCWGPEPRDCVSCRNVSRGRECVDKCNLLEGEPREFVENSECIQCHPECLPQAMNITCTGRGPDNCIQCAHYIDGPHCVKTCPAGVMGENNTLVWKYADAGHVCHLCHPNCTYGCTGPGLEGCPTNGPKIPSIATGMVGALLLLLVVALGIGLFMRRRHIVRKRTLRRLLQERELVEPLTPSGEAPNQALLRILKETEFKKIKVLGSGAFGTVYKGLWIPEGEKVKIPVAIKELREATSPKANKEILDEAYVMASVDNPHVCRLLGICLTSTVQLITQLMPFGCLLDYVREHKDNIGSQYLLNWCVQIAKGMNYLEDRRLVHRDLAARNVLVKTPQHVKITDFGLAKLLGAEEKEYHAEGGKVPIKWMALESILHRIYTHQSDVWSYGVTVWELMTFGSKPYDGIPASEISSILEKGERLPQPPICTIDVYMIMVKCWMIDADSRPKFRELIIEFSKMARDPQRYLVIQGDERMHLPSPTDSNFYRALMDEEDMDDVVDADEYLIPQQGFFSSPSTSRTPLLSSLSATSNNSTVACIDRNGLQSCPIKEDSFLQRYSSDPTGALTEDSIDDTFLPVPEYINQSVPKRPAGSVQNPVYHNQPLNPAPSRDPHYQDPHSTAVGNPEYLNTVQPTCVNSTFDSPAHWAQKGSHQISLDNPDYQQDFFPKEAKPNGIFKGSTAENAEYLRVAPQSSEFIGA
T2 sequence (P00533 with tags, fused parts or gaps DEL746-750 limits assumed): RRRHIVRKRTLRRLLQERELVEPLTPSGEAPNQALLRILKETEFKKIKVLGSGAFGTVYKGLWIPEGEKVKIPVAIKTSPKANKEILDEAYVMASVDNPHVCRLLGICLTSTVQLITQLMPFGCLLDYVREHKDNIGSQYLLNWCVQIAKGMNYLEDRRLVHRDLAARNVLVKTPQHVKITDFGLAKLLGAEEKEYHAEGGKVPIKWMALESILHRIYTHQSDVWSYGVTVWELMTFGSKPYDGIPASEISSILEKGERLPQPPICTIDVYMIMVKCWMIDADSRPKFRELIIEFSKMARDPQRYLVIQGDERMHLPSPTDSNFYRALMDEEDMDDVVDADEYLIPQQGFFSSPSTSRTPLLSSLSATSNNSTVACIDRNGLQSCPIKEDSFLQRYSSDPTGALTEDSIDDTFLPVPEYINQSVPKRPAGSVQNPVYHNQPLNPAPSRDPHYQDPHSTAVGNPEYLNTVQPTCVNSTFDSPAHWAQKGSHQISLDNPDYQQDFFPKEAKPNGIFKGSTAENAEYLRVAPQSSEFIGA
T1 sequence (P00533 with tags, fused parts or gaps DEL746-750/T790M limits assumed): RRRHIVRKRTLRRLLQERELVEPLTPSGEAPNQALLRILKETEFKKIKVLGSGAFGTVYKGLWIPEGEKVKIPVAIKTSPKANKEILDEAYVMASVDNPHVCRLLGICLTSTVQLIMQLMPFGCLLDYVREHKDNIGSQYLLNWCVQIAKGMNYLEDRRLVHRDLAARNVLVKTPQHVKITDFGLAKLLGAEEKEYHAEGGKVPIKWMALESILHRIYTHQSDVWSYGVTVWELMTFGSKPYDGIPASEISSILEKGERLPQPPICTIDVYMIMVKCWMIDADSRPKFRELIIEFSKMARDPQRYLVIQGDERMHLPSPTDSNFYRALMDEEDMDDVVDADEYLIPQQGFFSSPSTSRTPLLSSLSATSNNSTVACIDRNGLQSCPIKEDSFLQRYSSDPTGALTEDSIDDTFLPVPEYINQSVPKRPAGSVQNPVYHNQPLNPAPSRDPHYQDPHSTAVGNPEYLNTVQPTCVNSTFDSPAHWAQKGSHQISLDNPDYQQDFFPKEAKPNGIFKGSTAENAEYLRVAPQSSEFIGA
T9 sequence (P00533 with tags, fused parts or gaps DEL746-750/C797S limits assumed): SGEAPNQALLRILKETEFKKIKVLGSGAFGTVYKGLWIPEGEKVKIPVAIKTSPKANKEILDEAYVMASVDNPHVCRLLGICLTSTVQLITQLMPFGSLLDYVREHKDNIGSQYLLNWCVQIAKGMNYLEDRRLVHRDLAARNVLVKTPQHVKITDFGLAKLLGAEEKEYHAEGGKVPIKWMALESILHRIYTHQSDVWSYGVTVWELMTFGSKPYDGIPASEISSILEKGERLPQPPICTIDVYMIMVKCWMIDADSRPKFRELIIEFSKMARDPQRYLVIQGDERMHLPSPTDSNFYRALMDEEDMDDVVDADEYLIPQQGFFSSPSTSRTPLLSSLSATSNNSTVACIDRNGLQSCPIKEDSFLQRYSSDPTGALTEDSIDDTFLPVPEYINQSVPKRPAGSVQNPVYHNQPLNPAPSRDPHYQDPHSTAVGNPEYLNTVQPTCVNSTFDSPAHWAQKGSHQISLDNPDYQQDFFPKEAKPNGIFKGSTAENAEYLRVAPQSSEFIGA
T5 sequence (P00533 with tags, fused parts or gaps DEL746-750/T790M/C797S limits assumed): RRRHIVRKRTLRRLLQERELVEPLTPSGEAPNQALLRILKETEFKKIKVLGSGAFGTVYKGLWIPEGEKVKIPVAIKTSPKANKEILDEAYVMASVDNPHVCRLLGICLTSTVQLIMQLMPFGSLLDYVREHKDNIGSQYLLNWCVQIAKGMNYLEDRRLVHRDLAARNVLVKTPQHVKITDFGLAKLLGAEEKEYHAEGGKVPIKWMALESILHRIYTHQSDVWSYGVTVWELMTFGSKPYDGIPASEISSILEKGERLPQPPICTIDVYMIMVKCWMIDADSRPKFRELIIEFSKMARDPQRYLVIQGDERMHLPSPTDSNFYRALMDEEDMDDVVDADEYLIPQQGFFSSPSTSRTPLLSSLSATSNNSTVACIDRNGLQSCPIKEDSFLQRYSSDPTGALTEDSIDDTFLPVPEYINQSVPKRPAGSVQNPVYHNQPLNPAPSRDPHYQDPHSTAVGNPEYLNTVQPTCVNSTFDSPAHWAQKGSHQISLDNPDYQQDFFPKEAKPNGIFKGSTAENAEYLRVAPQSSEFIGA

Compound	GI50 [1, 3]	GI50 [1, 4]	GI50 [1, 5]	GI50 [1, 6]	GI50 [1, 7]	GI50 [1, 8]	GI50 [1, 9]	IC50 (EGFR Exon19Del/T790M)	IC50 (EGFR Exon19Del)	GI50 (PC-9; Homo sapiens, PC-9, 72 h)	IC50 (EGFR[T790M/C797S/L858R])	IC50 (EGFR (C797S L858R))	IC50 [2]	IC50 (EGFR L858R/T790M)	IC50 (EGFR L858R)	IC50 (EGFR wild type)	IC50 (EGFR (d746-750 C797S))	GI50 (A-431; [10])	GI50 [1, 11]	GI50 [1, 12]	further results
C[C@@H]1CCCOc2c(cnn2C2CC2)-c2cc(cn(C)c2=O)C(=O)Nc2nc3ccc(N4CCN(C)CC4)cc3n2C1 [Example A22, (11R)-5-Cyclopropyl-11,26-dimethyl-16-(4-methylpiperazin-1-yl)-7-oxa-4,5,13,20,22,26-hexaazapentacyclo[22.3.1.0^{2,6}.0^{13,21}.0^{14,19}]octacosa-1(28),2(6),3,14,16,18,20,24-octaene-23,27-dione]	9.3 nM	11 nM	30 nM	22 nM	9.6 nM	51 nM	20 nM	6.2 nM	9.1 nM	87 nM	5.8 nM	25 nM	6.5 nM	6.3 nM	86 nM	1200 nM	6.5 nM	2290 nM	–	–	–
C[C@@H]1CCCOc2c(cnn2C)-c2cc(cn(C)c2=O)C(=O)Nc2nc3ccc(N4CCC(N5CCN(C)CC5)C4)cc3n2C1 (stereo partly drawn) [Example A33]	0.4 nM	0.58 nM	1.1 nM	2.2 nM	2.3 nM	3.4 nM	3.2 nM	3.4 nM	3.1 nM	4.8 nM	5.2 nM	6 nM	3.1 nM	5.8 nM	7.3 nM	22 nM	2.1 nM	366 nM	–	–	–
Cn1ncc2c1OCCN1CC(CCC1(C)C)n1c(nc3ccc(N4CCOCC4)cc31)NC(=O)c1cc-2c(=O)n(C)c1 (stereo not drawn) [Example A12, 15,21,27,27-Tetramethyl-5-(morpholin-4-yl)-23-oxa-2,9,11,15,20,21,26-heptaazahexacyclo[24.3.1.1^{13,17}.0^{2,10}.0^{3,8}.0^{18,22}]hentriaconta-3,5,7,9,13,17(31),18(22),19-octaene-12,16-dione]	39 nM	265 nM	72 nM	159 nM	122 nM	116 nM	197 nM	89 nM	144 nM	149 nM	486 nM	389 nM	105 nM	476 nM	482 nM	> 5000 nM	119 nM	3130 nM	–	–	–
Cn1ncc2c1OCCN1CC3CCC(C3)(C1)n1c(nc3ccc(N4CCC(N5CC(F)C5)C4)cc31)NC(=O)c1cc-2c(=O)n(C)c1 (single isomer, unassigned) [Example A94B1, 5-[3-(3-Fluoroazetidin-1-yl)pyrrolidin-1-yl]-15,21-dimethyl-23-oxa-2,9,11,15,20,21,26-heptaazaheptacyclo[24.4.1.1^{1,28}.1^{13,17}.0^{2,10}.0^{3,8}.0^{18,22}]tritriaconta-3,5,7,9,13,17(33),18(22),19-octaene-12,16-dione]	–	–	–	–	–	–	–	7.1 nM	10 nM	–	5 nM	15 nM	5 nM	8.8 nM	27 nM	148 nM	3.7 nM	–	0.73 nM	6.5 nM	GI50 [1, 13]: 2 nM; GI50 [1, 14]: 6 nM; GI50 [1, 15]: 3.9 nM; GI50 [1, 16]: 12 nM; GI50 [1, 17]: 3 nM; GI50 (PC-9): 16 nM; GI50 (A-431; A-431 cells): 1110 nM
CN1CCC2(CC1)CN(c1ccc3nc4n(c3c1)C13CCC(CN(CCOc5c(cnn5C)-c5cc(cn(C)c5=O)C(=O)N4)C1)C3)C2 (single isomer, unassigned) [Example A77B]	–	–	–	–	–	–	–	3.8 nM	2.9 nM	–	3.4 nM	3.7 nM	3.6 nM	3.8 nM	3.5 nM	7.3 nM	2.1 nM	310 nM	0.72 nM	0.91 nM	GI50 [1, 13]: 0.89 nM; GI50 [1, 14]: 1.4 nM; GI50 [1, 15]: 1.3 nM; GI50 [1, 16]: 2.4 nM; GI50 [1, 17]: 0.85 nM; GI50 (PC-9): 2.1 nM
CN(C)C1CN(c2ccc3nc4n(c3c2)C23CCC(CN(CCOc5c(cnn5C)-c5cc(cn(C)c5=O)C(=O)N4)C2)C3)C1 (single isomer, unassigned) [Example A65B]	–	–	–	–	–	–	–	1.7 nM	0.94 nM	–	1.8 nM	7.4 nM	1.7 nM	2.4 nM	16 nM	148 nM	0.97 nM	–	0.71 nM	2.2 nM	GI50 [1, 13]: 2.7 nM; GI50 [1, 14]: 3.5 nM; GI50 [1, 15]: 2.8 nM; GI50 [1, 16]: 11 nM; GI50 [1, 17]: 2.4 nM; GI50 (PC-9): 5.6 nM; GI50 (A-431; A-431 cells): 538 nM
